Results as given in DBAASP.
Values after ≈ are worked out from the molar mass of the structure shown.

Key:
Experiment in all cases: ≥ marks a high value that may be exact or a test limit, other limits are often not marked, values filed in µg/mL are converted to µM
[1] = tested on: Staphylococcus aureus Cowan 1
[2] = tested on: Escherichia coli HB101
[3] = tested on: Leishmania major MHOM/IL/67/JERICHO-II
[4] = tested on: Escherichia coli ML-35p
[5] = tested on: Escherichia coli ATCC 25922
[6] = tested on: Salmonella enterica subsp. enterica serovar Enteritidis
[7] = tested on: Staphylococcus aureus ST1065
[8] = tested on: Staphylococcus aureus ATCC 43300
[9] = tested on: Bacillus megaterium
[10] = tested on: Saccharomyces cerevisiae
[11] = tested on: Candida parapsilosis ATCC 22019
[12] = tested on: Candida albicans ATCC 90028
[13] = tested on: Klebsiella pneumoniae ATCC 13883
[14] = tested on: Enterococcus faecalis ATCC 29212
[15] = tested on: Staphylococcus aureus ATCC BAA-44
[16] = tested on: Pseudomonas aeruginosa ATCC 27853
[17] = tested on: Staphylococcus aureus ATCC 25923
[18] = tested on: Acinetobacter baumannii ATCC 19606
[19] = tested on: Escherichia coli ATCC 35218
[20] = tested on: Klebsiella pneumoniae ATCC 200603
[21] = tested on: Candida tropicalis PCM 2681
[22] = tested on: Bacillus subtilis ATCC 6633
[23] = tested on: Pseudomonas aeruginosa ATCC 9027
[24] = tested on: Staphylococcus epidermidis ATCC 14490
[25] = tested on: Candida albicans ATCC 10231
[26] = tested on: Mycobacterium tuberculosis CSU87
[27] = tested on: Mycobacterium tuberculosis 173
[28] = tested on: Mycobacterium tuberculosis 411
[29] = tested on: Mycobacterium tuberculosis 212
[30] = tested on: Mycobacterium tuberculosis H37Rv
[31] = tested on: Micrococcus luteus ATCC 9341
[32] = tested on: Staphylococcus aureus ATCC 6538
[33] = tested on: Staphylococcus aureus 1550
[34] = tested on: Escherichia coli ATCC 2592
[35] = tested on: Alcaligenes faecalis ATCC 8750
[36] = tested on: Enterobacter cloacae beta-12
[37] = tested on: Serratia marcescens ATCC 4112
[38] = tested on: Salmonella sp.
[39] = tested on: Salmonella enterica subsp. arizonae
[40] = tested on: Escherichia coli SBS 363
[41] = tested on: Escherichia coli D31
[42] = tested on: Streptococcus sanguinis ATCC 10556
[43] = tested on: Streptococcus mutans UA159
[44] = tested on: Streptococcus sobrinus ATCC 6715

How did the MIC [1] turn out when `CSCC[C@H](NC(=O)[C@@H](NC(=O)CNC(=O)[C@H](CC(C)C)NC(=O)[C@H](CCCCN)NC(=O)[C@H](CCCCN)NC(=O)[C@H](CC(C)C)NC(=O)[C@H](CCSC)NC(=O)[C@@H](NC(=O)[C@H](CCCCN)NC(=O)[C@H](Cc1c[nH]c2ccccc12)NC(=O)[C@H](CC(C)C)NC(=O)[C@H](C)N)[C@@H](C)O)[C@@H](C)O)C(N)=O` [ALWKTMLKKLGTM] was run?
The MIC was ≥ 50.6 µM.

What about the MIC [2] of the same molecule?
The MIC was ≥ 50.6 µM.

What about the MIC [3] of the same molecule?
Its MIC is ≥ 50.6 µM.

What does the source list for `CC[C@H](C)[C@H](NC(=O)CNC(=O)[C@H](C)NC(=O)[C@H](CC(C)C)NC(=O)[C@H](C)NC(=O)[C@H](C)NC(=O)[C@@H]1CCCN1C(=O)[C@H](CC(C)C)NC(=O)[C@@H](N)Cc1ccccc1)C(=O)NCC(=O)NCC(=O)N[C@H](C(=O)N[C@@H](CC(C)C)C(=O)NCC(=O)N[C@@H](CCCCN)C(=O)N[C@@H](CC(C)C)C(=O)N[C@@H](Cc1ccccc1)C(N)=O)[C@@H](C)CC` [FLPAALAGIGGILGKLF]?
MIC [4]: 25 µM (≈ 41.4 µg/mL); MIC [5]: 5 µM (≈ 8.29 µg/mL); MIC [6]: ≥ 200 µM; MIC [7]: 6.25 µM (≈ 10.4 µg/mL); MIC [8]: 6.25 µM (≈ 10.4 µg/mL); MIC [9]: 1.56 µM (≈ 2.59 µg/mL); MIC [10]: 25 µM (≈ 41.4 µg/mL); MIC [11]: ≥ 200 µM; MIC [12]: ≥ 100 µM; MIC [13]: ≥ 100 µM; MIC [14]: 25 µM (≈ 41.4 µg/mL); MIC [15]: 6.25 µM (≈ 10.4 µg/mL); MIC [16]: > 200 µM; MIC [17]: 6.25 µM (≈ 10.4 µg/mL); MIC [18]: 25 µM (≈ 41.4 µg/mL); MIC [19]: ≥ 50 µM

Which results are given for `CC[C@H](C)[C@H](N)C(=O)N[C@H]1CSSC[C@@H](C(=O)N[C@H](C(=O)O)[C@@H](C)CC)NC(=O)[C@H](Cc2cnc[nH]2)NC(=O)[C@H](Cc2cnc[nH]2)NC1=O` [ICHHCI]?
MIC [20]: ≥ 706 µM; MIC [21]: ≥ 706 µM; MIC [22]: ≥ 706 µM; MIC [23]: > 706 µM; MIC [24]: ≥ 706 µM; MIC [5]: > 706 µM; MIC [17]: > 706 µM; MIC [25]: > 706 µM

`CC[C@H](C)[C@H](N)C(=O)N[C@@H](CC(C)C)C(=O)N[C@@H](CC(C)C)C(=O)N[C@@H](CCCCN)C(=O)N[C@@H](CCCCN)C(=O)N[C@@H](CC(C)C)C(=O)N[C@@H](CC(C)C)C(=O)N[C@@H](CCCCN)C(=O)N[C@@H](CCCCN)C(=O)N[C@H](C(N)=O)[C@@H](C)CC` [ILLKKLLKKI] was tested. Which MIC [26] did it give?
Its MIC is ≥ 207 µM.

And the MIC [27]?
The MIC was ≥ 413 µM.

And the MIC [28]?
Its MIC is ≥ 207 µM.

And the MIC [29]?
Its MIC is ≥ 413 µM.

And the MIC [30]?
Its MIC is ≥ 413 µM.

With `CC(C)[C@H](NC(=O)[C@H](CCCCN)NC(=O)[C@H](Cc1ccccc1)NC(=O)[C@@H](NC(=O)[C@@H](NC(=O)[C@H](CCCCN)NC(=O)[C@@H](N)CCCCN)C(C)C)C(C)C)C(=O)N[C@@H](CCCCN)C(=O)N[C@@H](Cc1ccccc1)C(=O)N[C@@H](Cc1cnc[nH]1)C(=O)O` [KKVVFKVKFH] as the molecule, how does the MIC [31] read?
Its MIC is 6.35 µM (≈ 8 µg/mL).

What about the MIC [23] of the same molecule?
Its MIC is 7.94 µM (≈ 10 µg/mL).

What about the MIC [32] of the same molecule?
The MIC was 9.92 µM (≈ 12.5 µg/mL).

What about the MIC [33] of the same molecule?
Its MIC is 19.8 µM (≈ 25 µg/mL).

What about the MIC [34] of the same molecule?
The MIC was 17.5 µM (≈ 22 µg/mL).

For `CC(C)[C@H](NC(=O)[C@H](C)NC(=O)[C@@H]1CCCN1C(=O)[C@H](Cc1ccc(O)cc1)NC(=O)[C@@H](N)CCCN=C(N)N)C(=O)NCC(=O)N[C@@H](Cc1ccc(O)cc1)C(=O)N[C@H](C(=O)O)[C@@H](C)O` [RYPAVGYT], which MIC [35] is on record?
Its MIC is 6.26 µM (≈ 5.8 µg/mL).

And the MIC [36]?
Its MIC is 3.13 µM (≈ 2.9 µg/mL).

What about the MIC [37] of the same molecule?
Its MIC is 6.26 µM (≈ 5.8 µg/mL).

And the MIC [38]?
Its MIC is 6.26 µM (≈ 5.8 µg/mL).

What about the MIC [39] of the same molecule?
The MIC was 6.26 µM (≈ 5.8 µg/mL).

What about the MIC [40] of the same molecule?
Its MIC is 6.26 µM (≈ 5.8 µg/mL).

And the MIC [41]?
Its MIC is 6.26 µM (≈ 5.8 µg/mL).

And the MIC [16]?
The MIC was 6.26 µM (≈ 5.8 µg/mL).

How did the MIC [42] turn out when `NCCCC[C@H](NC(=O)[C@H](Cc1c[nH]c2ccccc12)NC(=O)[C@H](CCCCN)NC(=O)[C@H](CCCCN)NC(=O)[C@H](Cc1ccccc1)NC(=O)[C@H](Cc1ccccc1)NC(=O)[C@H](CCCCN)NC(=O)[C@H](CCCCN)NC(=O)[C@H](Cc1ccccc1)NC(=O)[C@H](Cc1ccccc1)NC(=O)[C@H](CCCCN)NC(=O)[C@H](Cc1ccccc1)NC(=O)[C@@H](N)Cc1c[nH]c2ccccc12)C(=O)O` [WFKFFKKFFKKWK] was run?
Its MIC is 4.22 µM (≈ 8 µg/mL).

And the MIC [43]?
Its MIC is 4.22 µM (≈ 8 µg/mL).

What about the MIC [44] of the same molecule?
Its MIC is 4.22 µM (≈ 8 µg/mL).
